This is an account of results in ChEMBL document CHEMBL5036317, “Identification of Unique Quinazolone Thiazoles as Novel Structural Scaffolds for Potential Gram-Negative Bacterial Conquerors” (J Med Chem, 2021).

≈ marks a conversion by molar mass, not a printed value. Calls of active or inactive are those of the source.

Series [1] concerns Staphylococcus aureus. The series can be described thus: Antibacterial activity against Staphylococcus aureus assessed as inhibition of bacterial growth measured after 24 hrs by two-fold serial dilution method. It is filed as functional.
The subject of series [2] is Staphylococcus aureus. The series can be described thus: Antibacterial activity against methicillin-resistant Staphylococcus aureus assessed as inhibition of bacterial growth measured after 24 hrs by two-fold serial dilution method. It is filed as functional.
Series [3] concerns Pseudomonas aeruginosa. As to the kind of experiment: Antibacterial activity against Pseudomonas aeruginosa assessed as inhibition of bacterial growth measured after 24 hrs by two-fold serial dilution method. It is filed as functional.
Another series relates to Klebsiella pneumoniae. As to the kind of experiment: Antibacterial activity against Klebsiella pneumoniae assessed as inhibition of bacterial growth measured after 24 hrs by two-fold serial dilution method. It is filed as functional.
Series [4] relates to Pseudomonas aeruginosa. As to the kind of experiment: Antibacterial activity against Pseudomonas aeruginosa ATCC 27853 assessed as inhibition of bacterial growth measured after 24 hrs by two-fold serial dilution method. It is filed as functional.
Series [5] deals with Staphylococcus aureus. As to the kind of experiment: Antibacterial activity against Staphylococcus aureus ATCC 25923 assessed as inhibition of bacterial growth measured after 24 hrs by two-fold serial dilution method. It is filed as functional.
Series [6] concerns Staphylococcus aureus. As to the kind of experiment: Antibacterial activity against Staphylococcus aureus ATCC 29213 assessed as inhibition of bacterial growth measured after 24 hrs by two-fold serial dilution method. It is filed as functional.
Another series deals with Enterococcus faecalis. The series can be described thus: Antibacterial activity against Enterococcus faecalis assessed as inhibition of bacterial growth measured after 24 hrs by two-fold serial dilution method. It is filed as functional.
The test system of series [7] is Escherichia coli. As to the kind of experiment: Antibacterial activity against Escherichia coli assessed as inhibition of bacterial growth measured after 24 hrs by two-fold serial dilution method. It is filed as functional.
The nature of series [8]: Haemolytic activity in human erythrocytes incubated for 2 hrs. It is filed as ADME, cell-based, Erythrocyte.
In the next series the test system is Acinetobacter baumannii. As to the kind of experiment: Antibacterial activity against Acinetobacter baumanii assessed as inhibition of bacterial growth measured after 24 hrs by two-fold serial dilution method. It is filed as functional.
Series [9] deals with Escherichia coli. The series can be described thus: Antibacterial activity against Escherichia coli ATCC 25922 assessed as inhibition of bacterial growth measured after 24 hrs by two-fold serial dilution method. It is filed as functional.
For series [10], the system named is Cell membrane. The series can be described thus: Induction of outer membrane permeabilization in Pseudomonas aeruginosa assessed as increase in NPN uptake by measuring increase in fluorescence intensity incubated for 5 mins by NPN-dye based fluorescence analysis.
For series [11], the system named is Escherichia coli. The series can be described thus: Induction of ROS generation in Escherichia coli measured after 6 hrs by DCFH-DA staining based assay. It is filed as functional, organism-based.
The test system of series [12] is Cell membrane. As to the kind of experiment: Induction of outer membrane permeabilization in Escherichia coli assessed as increase in NPN uptake by measuring increase in fluorescence intensity incubated for 5 mins by NPN-dye based fluorescence analysis.
Series [13] concerns Cell membrane. As to the kind of experiment: Induction of cytoplasmic membrane depolarization in Pseudomonas aeruginosa assessed as increase in fluorescence intensity at 0 to 6 times MIC by DiSC3-5 dye based fluorescence assay. It is filed as subcellular.
Series [14] has as its system Cell membrane. As to the kind of experiment: Induction of cell membrane disruption in Pseudomonas aeruginosa assessed as reduction in LDH activity at 1 to 4 times MIC measured after 6 hrs. It is filed as subcellular.
The subject of series [15] is Escherichia coli. As to the kind of experiment: Antibiofilm activity against Escherichia coli assessed as reduction in biofilm biomass at 0 to 6 times MIC measured after 24 hrs by crystal violet staining based assay. It is filed as functional, organism-based.
Series [16] has as its system Pseudomonas aeruginosa. As to the kind of experiment: Induction of ROS generation in Pseudomonas aeruginosa measured after 6 hrs by DCFH-DA staining based assay. It is filed as functional, organism-based.
Series [17] concerns Pseudomonas aeruginosa. As to the kind of experiment: Antibacterial activity against Pseudomonas aeruginosa assessed as drug resistance treated for 16 serial passages and measured every 24 hrs. It is filed as functional, organism-based.
Series [18] relates to Pseudomonas aeruginosa. The series can be described thus: Antibiofilm activity against Pseudomonas aeruginosa assessed as reduction in biofilm biomass at 0 to 6 times MIC measured after 24 hrs by crystal violet staining based assay. It is filed as functional, organism-based.
Series [19] concerns Escherichia coli. As to the kind of experiment: Antibacterial activity against Escherichia coli assessed as drug resistance treated for 16 serial passages and measured every 24 hrs. It is filed as functional, organism-based.
The subject of series [20] is Cell membrane. As to the kind of experiment: Induction of inner membrane permeabilization in Escherichia coli assessed as increase in PI uptake by measuring increase in fluorescence intensity incubated for 30 mins by propidium iodide staining based fluorescence analysis.
The test system of series [21] is Pseudomonas aeruginosa. The series can be described thus: Antibacterial activity against Pseudomonas aeruginosa assessed as reduction in metabolic activity at 1 to 6 times MIC measured after 6 hrs by alamar blue assay. It is filed as functional, organism-based.
For series [22], the system named is Escherichia coli. As to the kind of experiment: Antibacterial activity against Escherichia coli assessed as reduction in metabolic activity at 1 to 6 times MIC measured after 6 hrs by alamar blue assay. It is filed as functional, organism-based. (Resazurin is reduced to fluorescent resorufin, in cell work by metabolically active cells.)
For series [23], the system named is Cell membrane. As to the kind of experiment: Induction of cell membrane disruption in Escherichia coli assessed as reduction in LDH activity at 1 to 4 times MIC measured after 6 hrs. It is filed as subcellular.
Series [24] has as its system Cell membrane. The series can be described thus: Induction of cell membrane disruption in Pseudomonas aeruginosa assessed as increase in protein leakage at 1 to 6 times MIC measured after 6 hrs by Bradford assay.
Series [25] has as its system Calf thymus DNA. As to the kind of experiment: Binding affinity to calf thymus DNA assessed as assessed as compound-DNA complex formation by measuring hypochromic shift by UV-visible absorption spectrophotometric method. It is filed as tissue-based. To be noted: Bos taurus.
For series [26], the system named is Cell membrane. The series can be described thus: Induction of cell membrane disruption in Escherichia coli assessed as increase in protein leakage at 1 to 6 times MIC measured after 6 hrs by Bradford assay.
Series [27] deals with Cell membrane. As to the kind of experiment: Induction of inner membrane permeabilization in Pseudomonas aeruginosa assessed as increase in PI uptake by measuring increase in fluorescence intensity incubated for 30 mins by propidium iodide staining based fluorescence analysis.
In series [28] the test system is Cell membrane. The series can be described thus: Induction of cytoplasmic membrane depolarization in Escherichia coli assessed as increase in fluorescence intensity at 0 to 6 times MIC by DiSC3-5 dye based fluorescence assay. It is filed as subcellular.
Series [29] has as its system Calf thymus DNA. As to the kind of experiment: Binding affinity to calf thymus DNA assessed as reduction in acridine orange-DNA complex formation by competitive binding assay. The following applies: Bos taurus.

The term MIC denotes the smallest concentration in the dilution series that meets the test's criterion for growth inhibition. The HC50 is the concentration that lyses half of the red blood cells. Higher therefore signals weaker haemolysis. Take `O=C(/C(=C/c1ccc2ccccc2c1)n1cnc2cc(Cl)ccc2c1=O)c1nccs1`: the MIC in the series with Staphylococcus aureus [1] stood at 4 µg/mL (≈ 9.01 µM); in the series with Staphylococcus aureus [2], 4 µg/mL (≈ 9.01 µM); in the series with Pseudomonas aeruginosa [3], 4 µg/mL (≈ 9.01 µM); in the series on Klebsiella pneumoniae it was 32 µg/mL (≈ 72.1 µM); with Pseudomonas aeruginosa [4], 4 µg/mL (≈ 9.01 µM); in the series on Staphylococcus aureus [5], 4 µg/mL (≈ 9.01 µM). For the same molecule, the MIC worked out at 16 µg/mL (≈ 36 µM) in the series on Staphylococcus aureus [6]; 16 µg/mL (≈ 36 µM) with Enterococcus faecalis; 32 µg/mL (≈ 72.1 µM) in the series on Escherichia coli [7]; 16 µg/mL (≈ 36 µM) with Acinetobacter baumannii; 4 µg/mL (≈ 9.01 µM) in the series with Escherichia coli [9]. Further, the HC50 at 2 h in [8] is 192 µg/mL.

With `O=C(/C(=C/c1ccc(C(F)(F)F)cc1)n1cnc2cc(Cl)ccc2c1=O)c1nccs1`, the Activity entry with Cell membrane [10], with Escherichia coli [11], with Cell membrane [12], with Pseudomonas aeruginosa [16], with Cell membrane [20] and in the series on Cell membrane [27] was “Dose-Dependent Effect” throughout. Also, the MIC with Staphylococcus aureus [1] is 32 µg/mL (≈ 69.3 µM); in the series with Staphylococcus aureus [2], 4 µg/mL (≈ 8.66 µM); in the series with Pseudomonas aeruginosa [3] it was 1 µg/mL (≈ 2.17 µM); with Klebsiella pneumoniae, 1 µg/mL (≈ 2.17 µM); in the series with Pseudomonas aeruginosa [4], 1 µg/mL (≈ 2.17 µM); with Staphylococcus aureus [5], 2 µg/mL (≈ 4.33 µM). Besides, the MIC with Staphylococcus aureus [6] turned out to be 1 µg/mL (≈ 2.17 µM); in the series on Enterococcus faecalis it was 2 µg/mL (≈ 4.33 µM); in the series on Escherichia coli [7], 1 µg/mL (≈ 2.17 µM); with Acinetobacter baumannii it was 8 µg/mL (≈ 17.3 µM); in the series with Escherichia coli [9], 2 µg/mL (≈ 4.33 µM). Moreover, the result in the series with Cell membrane [13], with Cell membrane [14], in the series on Escherichia coli [15], in the series on Pseudomonas aeruginosa [18], in the series on Pseudomonas aeruginosa [21] and in the series on Escherichia coli [22] was Active. The outcome in the series with Cell membrane [23], with Cell membrane [24], with Calf thymus DNA [25], in the series with Cell membrane [26], in the series on Cell membrane [28] and in the series on Calf thymus DNA [29] was Active. The same molecule yielded an HC50 at 2 h in [8] greater than 250 µg/mL. Also, the result in the series with Pseudomonas aeruginosa [17] and in the series with Escherichia coli [19] was inactive.

Consider `O=C(/C(=C/c1ccccc1)n1cnc2cc(Cl)ccc2c1=O)c1nccs1`, for which the MIC in the series with Staphylococcus aureus [1] came out at 8 µg/mL (≈ 20.3 µM); in the series on Staphylococcus aureus [2], 4 µg/mL (≈ 10.2 µM); in the series with Pseudomonas aeruginosa [3], 4 µg/mL (≈ 10.2 µM); in the series with Klebsiella pneumoniae, 2 µg/mL (≈ 5.08 µM); with Pseudomonas aeruginosa [4] it was 2 µg/mL (≈ 5.08 µM); in the series with Staphylococcus aureus [5], 2 µg/mL (≈ 5.08 µM). In addition, the MIC in the series on Staphylococcus aureus [6] stood at 2 µg/mL (≈ 5.08 µM); in the series with Enterococcus faecalis, 1 µg/mL (≈ 2.54 µM); in the series with Escherichia coli [7] it was 8 µg/mL (≈ 20.3 µM); in the series on Acinetobacter baumannii, 4 µg/mL (≈ 10.2 µM); in the series on Escherichia coli [9], 4 µg/mL (≈ 10.2 µM). The molecule further yielded an HC50 at 2 h in series [8] of 222 µg/mL.

With `CN(C)/C=C(/C(=O)c1nccs1)n1cnc2cc(Cl)ccc2c1=O`, the minimum inhibitory concentration (MIC) in the series on Staphylococcus aureus [1] is 512 µg/mL (≈ 1420 µM); in the series with Staphylococcus aureus [2], 512 µg/mL (≈ 1420 µM); with Pseudomonas aeruginosa [3] it was 16 µg/mL (≈ 44.3 µM); with Klebsiella pneumoniae, 128 µg/mL (≈ 355 µM); in the series with Pseudomonas aeruginosa [4], 16 µg/mL (≈ 44.3 µM); with Staphylococcus aureus [5] it was 256 µg/mL (≈ 709 µM). In addition, the MIC came out at 512 µg/mL (≈ 1420 µM) in the series with Staphylococcus aureus [6]; 128 µg/mL (≈ 355 µM) with Enterococcus faecalis; 512 µg/mL (≈ 1420 µM) with Escherichia coli [7]; 128 µg/mL (≈ 355 µM) in the series on Acinetobacter baumannii; 16 µg/mL (≈ 44.3 µM) in the series on Escherichia coli [9]. The molecule further gave an HC50 at 2 h in [8] of 204 µg/mL.

As to `O=C(/C(=C/c1ccc(Cl)cc1Cl)n1cnc2cc(Cl)ccc2c1=O)c1nccs1`, the MIC with Staphylococcus aureus [1] came to 32 µg/mL (≈ 69.2 µM); in the series with Staphylococcus aureus [2] it was 8 µg/mL (≈ 17.3 µM); with Pseudomonas aeruginosa [3], 8 µg/mL (≈ 17.3 µM); in the series with Klebsiella pneumoniae it was 1 µg/mL (≈ 2.16 µM); in the series on Pseudomonas aeruginosa [4] it was 1 µg/mL (≈ 2.16 µM); in the series with Staphylococcus aureus [5] it was 1 µg/mL (≈ 2.16 µM). The MIC in the series with Staphylococcus aureus [6] came to 2 µg/mL (≈ 4.32 µM); in the series on Enterococcus faecalis it was 8 µg/mL (≈ 17.3 µM); in the series on Escherichia coli [7], 2 µg/mL (≈ 4.32 µM); in the series on Acinetobacter baumannii, 16 µg/mL (≈ 34.6 µM); with Escherichia coli [9], 2 µg/mL (≈ 4.32 µM). Moreover, the HC50 at 2 h in [8] came out at 176 µg/mL.

Turning to `O=C(/C(=C/c1c[nH]c2ccccc12)n1cnc2cc(Cl)ccc2c1=O)c1nccs1`, the MIC amounted to 64 µg/mL (≈ 148 µM) in the series on Staphylococcus aureus [1]; 256 µg/mL (≈ 591 µM) with Staphylococcus aureus [2]; 256 µg/mL (≈ 591 µM) in the series on Pseudomonas aeruginosa [3]; 128 µg/mL (≈ 296 µM) with Klebsiella pneumoniae; 64 µg/mL (≈ 148 µM) in the series with Pseudomonas aeruginosa [4]; 64 µg/mL (≈ 148 µM) in the series on Staphylococcus aureus [5]. The MIC stood at 64 µg/mL (≈ 148 µM) in the series on Staphylococcus aureus [6]; 256 µg/mL (≈ 591 µM) in the series on Enterococcus faecalis; 64 µg/mL (≈ 148 µM) in the series with Escherichia coli [7]; 256 µg/mL (≈ 591 µM) with Acinetobacter baumannii; 64 µg/mL (≈ 148 µM) with Escherichia coli [9]. The HC50 at 2 h in series [8] is greater than 250 µg/mL.
